# Assay results as given in US8629102B2, “3-hydroxyisothiazole 1-oxide derivatives” (Mochida Pharmaceutical Co., Ltd., priority 2011, dated 2014).
# pEC50: −log10 of the molar value.
# Biological target: T1, GPR40 of human origin (Homo sapiens, UniProt O14842)
# T1 construct: expressed in transfected cells
# Assay: Agonist action on GPR40 of human origin (intracellular Ca2+ change)
# Type: cell-based
# Settings: CHO cell strain stably expressing GPR40 of human origin; change in Ca2+ concentration, fluorescent calcium indicator
# Method: Pharmacological Test Example 1: Agonist Action on GPR40 of Human Origin
# A CHO cell strain stably expressing GPR40 of human origin was used to determine the agonist action of a subject compound. This cell strain was seeded in a clear bottom 96 well plate at 4×10^4 cells/100 pt/well. The cell strain iswas cultured in a CO2 incubator overnight using a Ham's F-12 medium containing a 10% fetal bovine serum, 100 U/mL penicillin, 0.1 mg/mL streptomycin, and 400 μg/mL Geneticin. Calcium 4 Assay Kit (Molecular Devices) was used as a fluorescent calcium indicator. One mL of 77 mg/mL probenecid (Invitrogen) was added to 100 mL of a calcium indicator solution to prepare a solution (loading solution) mixed with a 20 mM HEPES-containing Hanks' balanced salt solution (HBSS) in equal proportions. To the cells from which the culture solution is removed, 200 μl of the loading solution was added, and the cells were cultured in a CO2 incubator for 1 hour. The subject compound was diluted with a 20 mM HEPES-containing HBSS and was added to the cells by 50 μL, and the change in the Ca^2+ concentration was measured with an intracellular ion analyzer. The EC50 value of the subject compound was calculated using the dose-response curve of fluorescence intensity variation.
# T1 sequence (O14842 whole entry): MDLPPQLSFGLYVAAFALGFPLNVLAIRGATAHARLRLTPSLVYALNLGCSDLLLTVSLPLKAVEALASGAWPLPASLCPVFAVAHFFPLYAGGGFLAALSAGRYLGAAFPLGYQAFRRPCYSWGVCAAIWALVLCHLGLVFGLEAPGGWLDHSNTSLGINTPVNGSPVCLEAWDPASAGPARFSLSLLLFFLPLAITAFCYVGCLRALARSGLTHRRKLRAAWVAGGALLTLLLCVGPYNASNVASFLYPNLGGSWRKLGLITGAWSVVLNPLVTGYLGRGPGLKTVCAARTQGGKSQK
row,pEC50,SMILES
1,5.52 to 6.52,"[O-][s+]1nc(O)cc1-c1ccc(O[C@@H]2CCc3c(-c4ccc(Cl)cc4F)cccc32)cc1 (stereo partly drawn) [Example 16, 5-(4-(((R)-4-(4-chloro-2-fluorophenyl)-2,3-dihydro-1H-inden-1-yl)oxy)phenyl)-3-hydroxyisothiazole 1-oxide]"
2,> 6.52,"[O-][s+]1nc(O)cc1-c1ccc(O[C@@H]2CCc3c(-c4cccc(F)c4F)cccc32)cc1 (stereo partly drawn) [Example 17, 5-(4-(((R)-4-(2,3-difluorophenyl)-2,3-dihydro-1H-inden-1-yl)oxy)phenyl)-3-hydroxyisothiazole 1-oxide]"
3,5.52 to 6.52,"CCOc1cc(Cl)ccc1-c1cccc2c1CC[C@H]2Oc1ccc(-c2cc(O)n[s+]2[O-])cc1 (stereo partly drawn) [Example 18, 5-(4-(((R)-4-(4-chloro-2-ethoxyphenyl)-2,3-dihydro-1H-inden-1-yl)oxy)phenyl)-3-hydroxyisothiazole 1-oxide]"
4,> 6.52,"CCOc1ncccc1-c1cccc2c1CC[C@H]2Oc1ccc(-c2cc(O)n[s+]2[O-])cc1 (stereo partly drawn) [Example 19, 5-(4-(((R)-4-(2-ethoxypyridin-3-yl)-2,3-dihydro-1H-inden-1-yl)oxy)phenyl)-3-hydroxyisothiazole 1-oxide]"
5,5.52 to 6.52,"CCc1ccc(-c2cccc3c2CC[C@H]3Oc2ccc(-c3cc(O)n[s+]3[O-])cc2)cc1 (stereo partly drawn) [Example 20, 5-(4-(((R)-4-(4-ethylphenyl)-2,3-dihydro-1H-inden-1-yl)oxy)phenyl)-3-hydroxyisothiazole 1-oxide]"
6,> 6.52,"[O-][s+]1nc(O)cc1-c1ccc(O[C@@H]2CCc3c(-c4ccc(F)cc4)cccc32)cc1 (stereo partly drawn) [Example 21, 5-(4-(((R)-4-(4-fluorophenyl)-2,3-dihydro-1H-inden-1-yl)oxy)phenyl)-3-hydroxyisothiazole 1-oxide]"
7,> 6.52,"CCCc1ccc(-c2cccc3c2CC[C@H]3Oc2ccc(-c3cc(O)n[s+]3[O-])cc2)cc1 (stereo partly drawn) [Example 22, 5-(4-(((R)-4-(4-n-propylphenyl)-2,3-dihydro-1H-inden-1-yl)oxy)phenyl)-3-hydroxyisothiazole 1-oxide]"
8,> 6.52,"COc1ccc(-c2cccc3c2CC[C@H]3Oc2ccc(-c3cc(O)n[s+]3[O-])cc2)cc1 (stereo partly drawn) [Example 23, 5-(4-(((R)-4-(4-methoxyphenyl)-2,3-dihydro-1H-inden-1-yl)oxy)phenyl)-3-hydroxyisothiazole 1-oxide]"
9,> 6.52,"Cc1cccc(-c2cccc3c2CC[C@H]3Oc2ccc(-c3cc(O)n[s+]3[O-])cc2)c1 (stereo partly drawn) [Example 24, 5-(4-(((R)-4-(3-methylphenyl)-2,3-dihydro-1H-inden-1-yl)oxy)phenyl)-3-hydroxyisothiazole 1-oxide]"
10,5.52 to 6.52,"C=Cc1ccc(-c2cccc3c2CC[C@H]3Oc2ccc(-c3cc(O)n[s+]3[O-])cc2)cc1 (stereo partly drawn) [Example 25, 5-(4-(((R)-4-(4-vinylphenyl)-2,3-dihydro-1H-inden-1-yl)oxy)phenyl)-3-hydroxyisothiazole 1-oxide]"
11,> 6.52,"Cc1ccccc1-c1cccc2c1CC[C@H]2Oc1ccc(-c2cc(O)n[s+]2[O-])cc1 (stereo partly drawn) [Example 27, 5-(4-(((R)-4-(2-methylphenyl)-2,3-dihydro-1H-inden-1-yl)oxy)phenyl)-3-hydroxyisothiazole 1-oxide]"
12,> 6.52,"CC(C)Cc1ccc(-c2cccc3c2CC[C@H]3Oc2ccc(-c3cc(O)n[s+]3[O-])cc2)cc1 (stereo partly drawn) [Example 28, 5-(4-(((R)-4-(4-isobutylphenyl)-2,3-dihydro-1H-inden-1-yl)oxy)phenyl)-3-hydroxyisothiazole 1-oxide]"
13,> 6.52,"[O-][s+]1nc(O)cc1-c1ccc(O[C@@H]2CCc3c(-c4cccc(F)c4)cccc32)cc1 (stereo partly drawn) [Example 29, 5-(4-(((R)-4-(3-fluorophenyl)-2,3-dihydro-1H-inden-1-yl)oxy)phenyl)-3-hydroxyisothiazole 1-oxide]"
14,> 6.52,"COc1cccc(-c2cccc3c2CC[C@H]3Oc2ccc(-c3cc(O)n[s+]3[O-])cc2)c1 (stereo partly drawn) [Example 30, 5-(4-(((R)-4-(3-methoxyphenyl)-2,3-dihydro-1H-inden-1-yl)oxy)phenyl)-3-hydroxyisothiazole 1-oxide]"
15,5.52 to 6.52,"CC(C)Oc1ccc(-c2cccc3c2CC[C@H]3Oc2ccc(-c3cc(O)n[s+]3[O-])cc2)cc1 (stereo partly drawn) [Example 31, 5-(4-(((R)-4-(4-isopropoxyphenyl)-2,3-dihydro-1H-inden-1-yl)oxy)phenyl)-3-hydroxyisothiazole 1-oxide]"
16,5.52 to 6.52,"CCOc1cccc(-c2cccc3c2CC[C@H]3Oc2ccc(-c3cc(O)n[s+]3[O-])cc2)c1 (stereo partly drawn) [Example 32, 5-(4-(((R)-4-(3-ethoxyphenyl)-2,3-dihydro-1H-inden-1-yl)oxy)phenyl)-3-hydroxyisothiazole 1-oxide]"

row,pEC50,SMILES
1,5.52 to 6.52,"CC(C)(C)c1ccc(-c2cccc3c2CC[C@H]3Oc2ccc(-c3cc(O)n[s+]3[O-])cc2)cc1 (stereo partly drawn) [Example 33, 5-(4-(((R)-4-(4-tert-butylphenyl)-2,3-dihydro-1H-inden-1-yl)oxy)phenyl)-3-hydroxyisothiazole 1-oxide]"
2,5.52 to 6.52,"CC(C)c1ccccc1-c1cccc2c1CC[C@H]2Oc1ccc(-c2cc(O)n[s+]2[O-])cc1 (stereo partly drawn) [Example 34, 5-(4-(((R)-4-(2-isopropylphenyl)-2,3-dihydro-1H-inden-1-yl)oxy)phenyl)-3-hydroxyisothiazole 1-oxide]"
3,> 6.52,"Cc1ccc(-c2cccc3c2CC[C@H]3Oc2ccc(-c3cc(O)n[s+]3[O-])cc2)c(C)c1 (stereo partly drawn) [Example 36, 5-(4-(((R)-4-(2,4-dimethylphenyl)-2,3-dihydro-1H-inden-1-yl)oxy)phenyl)-3-hydroxyisothiazole 1-oxide]"
4,> 6.52,"Cc1ccc(C)c(-c2cccc3c2CC[C@H]3Oc2ccc(-c3cc(O)n[s+]3[O-])cc2)c1 (stereo partly drawn) [Example 37, 5-(4-(((R)-4-(2,5-dimethylphenyl)-2,3-dihydro-1H-inden-1-yl)oxy)phenyl)-3-hydroxyisothiazole 1-oxide]"
5,> 6.52,"Cc1cc(-c2cccc3c2CC[C@H]3Oc2ccc(-c3cc(O)n[s+]3[O-])cc2)ccc1F (stereo partly drawn) [Example 38, 5-(4-(((R)-4-(4-fluoro-3-methylphenyl)-2,3-dihydro-1H-inden-1-yl)oxy)phenyl)-3-hydroxyisothiazole 1-oxide]"
6,> 6.52,"Cc1cc(F)ccc1-c1cccc2c1CC[C@H]2Oc1ccc(-c2cc(O)n[s+]2[O-])cc1 (stereo partly drawn) [Example 39, 5-(4-(((R)-4-(4-fluoro-2-methylphenyl)-2,3-dihydro-1H-inden-1-yl)oxy)phenyl)-3-hydroxyisothiazole 1-oxide]"
7,> 6.52,"COc1ccc(-c2cccc3c2CC[C@H]3Oc2ccc(-c3cc(O)n[s+]3[O-])cc2)c(C)c1 (stereo partly drawn) [Example 40, 5-(4-(((R)-4-(4-methoxy-2-methylphenyl)-2,3-dihydro-1H-inden-1-yl)oxy)phenyl)-3-hydroxyisothiazole 1-oxide]"
8,> 6.52,"Cc1ccc(F)cc1-c1cccc2c1CC[C@H]2Oc1ccc(-c2cc(O)n[s+]2[O-])cc1 (stereo partly drawn) [Example 41, 5-(4-(((R)-4-(5-fluoro-2-methylphenyl)-2,3-dihydro-1H-inden-1-yl)oxy)phenyl)-3-hydroxyisothiazole 1-oxide]"
9,> 6.52,"[O-][s+]1nc(O)cc1-c1ccc(O[C@@H]2CCc3c(-c4ccccc4OCc4ccccc4)cccc32)cc1 (stereo partly drawn) [Example 42, 5-(4-(((R)-4-(2-benzyloxyphenyl)-2,3-dihydro-1H-inden-1-yl)oxy)phenyl)-3-hydroxyisothiazole 1-oxide]"
10,> 6.52,"Cc1ccc(-c2cccc3c2CC[C@H]3Oc2ccc(-c3cc(O)n[s+]3[O-])cc2)c(Cl)c1 (stereo partly drawn) [Example 43, 5-(4-(((R)-4-(2-chloro-4-methylphenyl)-2,3-dihydro-1H-inden-1-yl)oxy)phenyl)-3-hydroxyisothiazole 1-oxide]"
11,5.52 to 6.52,"CCOc1ccc(-c2cccc3c2CC[C@H]3Oc2ccc(-c3cc(O)n[s+]3[O-])cc2)cc1F (stereo partly drawn) [Example 44, 5-(4-(((R)-4-(4-ethoxy-3-fluorophenyl)-2,3-dihydro-1H-inden-1-yl)oxy)phenyl)-3-hydroxyisothiazole 1-oxide]"
12,> 6.52,"COc1ccc(C)cc1-c1cccc2c1CC[C@H]2Oc1ccc(-c2cc(O)n[s+]2[O-])cc1 (stereo partly drawn) [Example 45, 5-(4-(((R)-4-(2-methoxy-5-methylphenyl)-2,3-dihydro-1H-inden-1-yl)oxy)phenyl)-3-hydroxyisothiazole 1-oxide]"
13,> 6.52,"[O-][s+]1nc(O)cc1-c1ccc(O[C@@H]2CCc3c(-c4cc(F)ccc4F)cccc32)cc1 (stereo partly drawn) [Example 46, 5-(4-(((R)-4-(2,5-difluorophenyl)-2,3-dihydro-1H-inden-1-yl)oxy)phenyl)-3-hydroxyisothiazole 1-oxide]"
14,> 6.52,"Cc1cc(OCc2ccccc2)ccc1-c1cccc2c1CC[C@H]2Oc1ccc(-c2cc(O)n[s+]2[O-])cc1 (stereo partly drawn) [Example 47, 5-(4-(((R)-4-(4-benzyloxy-2-methylphenyl)-2,3-dihydro-1H-inden-1-yl)oxy)phenyl)-3-hydroxyisothiazole 1-oxide]"
15,> 6.52,"COc1ccc(-c2cccc3c2CC[C@H]3Oc2ccc(-c3cc(O)n[s+]3[O-])cc2)c(Cl)c1 (stereo partly drawn) [Example 48, 5-(4-(((R)-4-(2-chloro-4-methoxyphenyl)-2,3-dihydro-1H-inden-1-yl)oxy)phenyl)-3-hydroxyisothiazole 1-oxide]"
16,> 6.52,"COc1ccc(-c2cccc3c2CC[C@H]3Oc2ccc(-c3cc(O)n[s+]3[O-])cc2)c(OC)c1 (stereo partly drawn) [Example 49, 5-(4-(((R)-4-(2,4-dimethoxyphenyl)-2,3-dihydro-1H-inden-1-yl)oxy)phenyl)-3-hydroxyisothiazole 1-oxide]"
